Results on eleven molecules are retold here after US12209102B2, “Heterocyclic compounds and uses thereof” (Kumquat Biosciences Inc., priority 2022, dated 2025).

One assay deals with T1, K-Ras G12S (Homo sapiens, UniProt P01116, G12S).
T1 construct: made in house; host or cells: E. coli BL21 (DE3)
Description: HTRF resonance energy transfer assay, K-Ras G12S / SOS1 interaction. As to conditions: HTRF assay of Example 5; read-out: IC50 against K-Ras G12S. Type of assay: biochemical. The method in brief: (§1)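 Compounds, tested in duplicate at 10 μM down to 0.01 μM, were read after about 10 min or more by HTRF as the 665/620 nm emission ratio (337 nm excitation) to derive IC50. This ratio reports FRET between an anti-GST-Eu donor on GST-K-Ras (wild-type or mutant) and an anti-6His-XL665 acceptor on His-hSOS1. Buffer: ~5 mM HEPES pH 7.4, 150 mM NaCl, 1 mM DTT, 0.05% BSA, 0.0025% Igepal.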

The target of the next assay is T2, K-Ras WT (Homo sapiens, UniProt P01116).
T2 construct: made in house; host or cells: E. coli BL21 (DE3)
T2 sequence (P01116 1-188 isoform P01116-2): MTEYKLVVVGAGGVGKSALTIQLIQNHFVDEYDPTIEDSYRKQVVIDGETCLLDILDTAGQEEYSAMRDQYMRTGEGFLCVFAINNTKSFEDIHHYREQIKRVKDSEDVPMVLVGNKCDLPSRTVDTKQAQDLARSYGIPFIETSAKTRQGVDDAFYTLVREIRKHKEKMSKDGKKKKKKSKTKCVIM
As to the kind of experiment: HTRF resonance energy transfer assay, K-Ras WT / SOS1 interaction. Type of assay: biochemical. As to conditions: HTRF assay of Example 5; read-out: IC50 against K-Ras WT. The method in brief: as §1

The next assay has as its target T3, K-Ras G12V (Homo sapiens, UniProt P01116, G12V).
T3 construct: made in house; host or cells: E. coli BL21 (DE3)
Description: HTRF resonance energy transfer assay, K-Ras G12V / SOS1 interaction. The format is biochemical. As to conditions: HTRF assay of Example 5; read-out: IC50 against K-Ras G12V. The method in brief:
as §1

Another assay concerns the target T4, K-Ras G12D (Homo sapiens, UniProt P01116, G12D).
T4 construct: made in house; host or cells: E. coli BL21 (DE3)
Description: HTRF resonance energy transfer assay, K-Ras G12D / SOS1 interaction. The format is biochemical. As to conditions: HTRF assay of Example 5; read-out: IC50 against K-Ras G12D. The method in brief:
as §1

The subject of a further assay is SW620 cells. As to the kind of experiment: Ras cellular assay, growth of cells with K-Ras G12V mutation (CellTiter-Glo). The format is cell-based. As to conditions: Homo sapiens, SW-620; cell growth, Example 9, G12V mutation; read-out: IC50 against SW620 cells. The method, then: For example, this assay can be also used to assess a selective growth inhibition of a mutant Ras protein relative to a wildtype, or relative to a different mutant Ras protein.
SW620 (ATCC CCL-227) and Capan-1 (ATCC HTB-79) cell lines comprise a G12V mutation and can be used to assess Ras cellular signaling in vitro, e.g., in response to the compounds herein. SW620 culture medium is prepared with RPMI-1640 and 10% heat-inactivated FBS. Capan-1 culture medium is prepared with RPMI-1640 and 10% heat-inactivated FBS. A CellTiter-Glo (CTG) luminescent based assay (Promega) is used to assess growth of the cells, as a measurement of the ability of the compounds herein to inhibit Ras signaling in the cells. The cells (e.g., 800 per well) are seeded in their respective culture medium in standard tissue culture-treated 384-well format plates (Falcon #08-772-116) or ultra-low attachment surface 384-well format plates (S-Bio #MS-9384WZ). The day after plating, cells are treated with a dilution series (e.g., a 10 point 3-fold dilution series) of the compounds herein (e.g., approximately 40 μL final volume per well). Cell viability can be monitored (e.g., approximately 6 days later) according to the manufacturer's recommended instructions, where the CellTiter-Glo reagent is added (e.g., approximately 10 μL), vigorously mixed, covered, and placed on a plate shaker (e.g., approximately for 20 min) to ensure sufficient cell lysis prior to assessment of luminescent signal. The IC50 values are determined using the four parameter fit. The resulting IC50 value is a measurement of the ability of the compounds herein to reduce cell growth of Ras-driven cells (e.g., tumor cell lines) in vitro and/or in vivo.

T4 sequence (P01116 1-188 isoform P01116-2 G12D): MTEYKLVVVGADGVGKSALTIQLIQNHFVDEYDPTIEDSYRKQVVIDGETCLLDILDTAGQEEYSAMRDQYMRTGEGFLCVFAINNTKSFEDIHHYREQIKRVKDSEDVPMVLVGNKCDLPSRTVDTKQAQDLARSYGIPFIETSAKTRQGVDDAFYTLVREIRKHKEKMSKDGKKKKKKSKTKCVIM
T1 sequence (P01116 1-188 isoform P01116-2 G12S): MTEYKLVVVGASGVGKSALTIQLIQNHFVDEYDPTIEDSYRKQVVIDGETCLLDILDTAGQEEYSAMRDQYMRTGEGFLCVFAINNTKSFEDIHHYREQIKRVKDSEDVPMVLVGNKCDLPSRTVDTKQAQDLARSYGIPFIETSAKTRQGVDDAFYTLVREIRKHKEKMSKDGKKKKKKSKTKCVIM
T3 sequence (P01116 1-188 isoform P01116-2 G12V): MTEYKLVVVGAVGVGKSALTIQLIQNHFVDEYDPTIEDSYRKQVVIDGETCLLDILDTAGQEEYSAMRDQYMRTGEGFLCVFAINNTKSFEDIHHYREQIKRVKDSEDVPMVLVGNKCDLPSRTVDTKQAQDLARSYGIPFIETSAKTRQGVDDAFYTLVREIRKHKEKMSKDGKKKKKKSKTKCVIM

In the case of `Cn1nc(N)cc1CN1CCOc2c(Cl)c(-c3ccc(F)c4sc(N)c(C#N)c34)c(F)c3nc(OC[C@@]45CCCN4C[C@H](F)C5)nc1c23` [Compound 770, 2-amino-4-(4-((3-amino-1-methyl-1H-pyrazol-5-yl)methyl)-8-chloro-10-fluoro-2-(((2R,7aS)-2-fluorotetrahydro-1H-pyrrolizin-7a(5H)-yl)methoxy)-5,6-dihydro-4H-[1,4]oxazepino[5,6,7-de]quinazolin-9-yl)-7-fluorobenzo[b]thiophene-3-carbonitrile], the IC50 on K-Ras G12S was under 100 nM; at K-Ras WT it was under 100 nM; at K-Ras G12V, under 100 nM; at K-Ras G12D it was under 100 nM; with SW620 cells, under 5000 nM.

As to `N#Cc1c(N)sc2c(F)ccc(-c3c(Cl)c4c5c(nc(OC[C@@]67CCCN6C[C@H](F)C7)nc5c3F)N(C3CCCC3O)CCO4)c12` (stereo partly drawn) [Compound 808, 2-amino-4-(8-chloro-10-fluoro-2-(((2R,7aS)-2-fluorotetrahydro-1H-pyrrolizin-7a(5H)-yl)methoxy)-4-(2-hydroxycyclopentyl)-5,6-dihydro-4H-[1,4]oxazepino[5,6,7-de]quinazolin-9-yl)-7-fluorobenzo[b]thiophene-3-carbonitrile], the half-inhibitory concentration (IC50) on K-Ras G12S was under 100 nM; on K-Ras WT, under 100 nM; on K-Ras G12V, under 100 nM; at K-Ras G12D it was under 100 nM; with SW620 cells, under 5000 nM.

Take `CC1Oc2c(Cl)c(-c3ccc(F)c4sc(N)c(C#N)c34)c(F)c3nc(OC[C@@]45CCCN4C[C@H](F)C5)nc(c23)N(CC(F)F)[C@H]1C(C)(C)O` (stereo partly drawn) [Compound 810, 2-amino-4-((5R)-8-chloro-4-(2,2-difluoroethyl)-10-fluoro-2-(((2R,7aS)-2-fluorotetrahydro-1H-pyrrolizin-7a(5H)-yl)methoxy)-5-(2-hydroxypropan-2-yl)-6-methyl-5,6-dihydro-4H-[1,4]oxazepino[5,6,7-de]quinazolin-9-yl)-7-fluorobenzo[b]thiophene-3-carbonitrile]: the concentration for half-maximal inhibition (IC50) on K-Ras G12S was under 100 nM; on K-Ras WT it was under 100 nM; at K-Ras G12V it was under 100 nM; at K-Ras G12D, under 100 nM; in the assay with SW620 cells, under 5000 nM.

For `N#Cc1c(N)sc2c(F)ccc(-c3c(Cl)c4c5c(nc(OC[C@@]67CCCN6C[C@H](F)C7)nc5c3F)N(CC3CCCN3C(=O)C3CN3)CCO4)c12` (stereo partly drawn) [Compound 811, 2-amino-4-(4-((1-(aziridine-2-carbonyl)pyrrolidin-2-yl)methyl)-8-chloro-10-fluoro-2-(((2R,7aS)-2-fluorotetrahydro-1H-pyrrolizin-7a(5H)-yl)methoxy)-5,6-dihydro-4H-[1,4]oxazepino[5,6,7-de]quinazolin-9-yl)-7-fluorobenzo[b]thiophene-3-carbonitrile], the concentration for half-maximal inhibition (IC50) at K-Ras G12S was under 100 nM; at K-Ras WT, under 100 nM; on K-Ras G12V, under 100 nM; at K-Ras G12D, under 100 nM; in the assay on SW620 cells it was under 5000 nM.

For the molecule `C[C@H]1COc2c(Cl)c(-c3ccc(F)c4sc(N)c(C#N)c34)c(F)c3nc(OC[C@@]45CCCN4C[C@H](F)C5)nc(c23)N1CC1CC1C#N` (stereo partly drawn) [Compound 818, 2-amino-4-((5S)-8-chloro-4-((2-cyanocyclopropyl)methyl)-10-fluoro-2-(((2R,7aS)-2-fluorotetrahydro-1H-pyrrolizin-7a(5H)-yl)methoxy)-5-methyl-5,6-dihydro-4H-[1,4]oxazepino[5,6,7-de]quinazolin-9-yl)-7-fluorobenzo[b]thiophene-3-carbonitrile], the concentration for half-maximal inhibition (IC50) on K-Ras G12S is under 100 nM; at K-Ras WT, under 100 nM; on K-Ras G12V it was under 100 nM; on K-Ras G12D, under 100 nM; in the assay on SW620 cells, under 5000 nM.

As for `N#Cc1c(N)sc2c(F)ccc(-c3c(Cl)c4c5c(nc(OC[C@@]67CCCN6C[C@H](F)C7)nc5c3F)N(CC3CC3C#N)[C@@H](C(F)F)CO4)c12` (stereo partly drawn) [Compound 853, 2-amino-4-((5R)-8-chloro-4-((2-cyanocyclopropyl)methyl)-5-(difluoromethyl)-10-fluoro-2-(((2R,7aS)-2-fluorotetrahydro-1H-pyrrolizin-7a(5H)-yl)methoxy)-5,6-dihydro-4H-[1,4]oxazepino[5,6,7-de]quinazolin-9-yl)-7-fluorobenzo[b]thiophene-3-carbonitrile], the concentration for half-maximal inhibition (IC50) was under 100 nM at K-Ras G12S; under 100 nM at K-Ras WT; under 100 nM on K-Ras G12V; under 100 nM on K-Ras G12D; under 5000 nM in the assay on SW620 cells.

On to `N#Cc1c(N)sc2c(F)ccc(-c3c(Cl)c4c5c(nc(OC[C@@]67CCCN6C[C@H](F)C7)nc5c3F)N(C3CCC(N)C3)CCO4)c12` (stereo partly drawn) [Compound 907, 2-amino-4-(4-(3-aminocyclopentyl)-8-chloro-10-fluoro-2-(((2R,7aS)-2-fluorotetrahydro-1H-pyrrolizin-7a(5H)-yl)methoxy)-5,6-dihydro-4H-[1,4]oxazepino[5,6,7-de]quinazolin-9-yl)-7-fluorobenzo[b]thiophene-3-carbonitrile], for which the concentration for half-maximal inhibition (IC50) on K-Ras G12S was under 100 nM; on K-Ras WT, under 100 nM; on K-Ras G12V, under 100 nM; at K-Ras G12D, under 100 nM; in the assay with SW620 cells, under 5000 nM.

With `N#Cc1c(N)sc2c(F)ccc(-c3c(Cl)c4c5c(nc(OC[C@@]67CCCN6C[C@H](F)C7)nc5c3F)N(CC(F)F)[C@@H](CNC(=O)[C@H]3CN3)CO4)c12` [Compound 1053, (2R)-N-(((5S)-9-(2-amino-3-cyano-7-fluorobenzo[b]thiophen-4-yl)-8-chloro-4-(2,2-difluoroethyl)-10-fluoro-2-(((2R,7aS)-2-fluorotetrahydro-1H-pyrrolizin-7a(5H)-yl)methoxy)-5,6-dihydro-4H-[1,4]oxazepino[5,6,7-de]quinazolin-5-yl)methyl)aziridine-2-carboxamide], the IC50 at K-Ras G12S was under 100 nM; on K-Ras WT, under 100 nM; on K-Ras G12V it was under 100 nM; on K-Ras G12D it was under 100 nM; in the assay on SW620 cells it was under 5000 nM.

In the case of `N#Cc1c(N)sc2c(F)ccc(-c3c(Cl)c4c5c(nc(OC[C@@]67CCCN6C[C@H](F)C7)nc5c3F)N(C3CC3)[C@@H](CNC=O)CO4)c12` [Compound 1084, N-(((5S)-9-(2-amino-3-cyano-7-fluorobenzo[b]thiophen-4-yl)-8-chloro-4-cyclopropyl-10-fluoro-2-(((2R,7aS)-2-fluorotetrahydro-1H-pyrrolizin-7a(5H)-yl)methoxy)-5,6-dihydro-4H-[1,4]oxazepino[5,6,7-de]quinazolin-5-yl)methyl)formamide], the IC50 at K-Ras G12S is under 100 nM; at K-Ras WT it was under 100 nM; at K-Ras G12V, under 100 nM; at K-Ras G12D, under 100 nM; in the assay with SW620 cells, under 5000 nM.

Consider `N#Cc1c(N)sc2c(F)ccc(-c3c(Cl)c4c5c(nc(OC[C@@]67CCCN6C[C@H](F)C7)nc5c3F)N([C@H]3CNC[C@@H]3F)CCO4)c12` [Compound 1085, 2-amino-4-(8-chloro-10-fluoro-4-((3S,4S)-4-fluoropyrrolidin-3-yl)-2-(((2R,7aS)-2-fluorotetrahydro-1H-pyrrolizin-7a(5H)-yl)methoxy)-5,6-dihydro-4H-[1,4]oxazepino[5,6,7-de]quinazolin-9-yl)-7-fluorobenzo[b]thiophene-3-carbonitrile], for which the IC50 on K-Ras G12S was under 100 nM; on K-Ras WT, under 100 nM; on K-Ras G12V, under 100 nM; on K-Ras G12D, under 100 nM; in the assay on SW620 cells it was under 5000 nM.

With `CN1c2nc(OC[C@@]34CCCN3C[C@H](F)C4)nc3c(F)c(-c4ccc(F)c5sc(N)c(C#N)c45)c(Cl)c(c23)OCC[C@H]1C1CC1` [Compound 1209, 2-amino-4-((5S)-9-chloro-5-cyclopropyl-11-fluoro-2-(((2R,7aS)-2-fluorotetrahydro-1H-pyrrolizin-7a(5H)-yl)methoxy)-4-methyl-4,5,6,7-tetrahydro-[1,5]oxazocino[4,3,2-de]quinazolin-10-yl)-7-fluorobenzo[b]thiophene-3-carbonitrile], the IC50 is under 100 nM at K-Ras G12S; under 100 nM on K-Ras WT; under 100 nM on K-Ras G12V; under 100 nM on K-Ras G12D; under 5000 nM in the assay with SW620 cells.
